Assay results published in EP4342467A1, “KU INHIBITORS FOR USE IN TUMOR THERAPY” (Masarykova Univerzita, priority 2022, dated 2024).

Columns and labels:
HCT116 cells [1] = assay: flow cytometry analysis of DNA content (cell cycle); format: cell-based, human; details: HCT116 incubated for two days
Method: HCT116 cells were incubated for two days in McCoy's 5a medium supplemented with 10% Fetal Bovine Serum, 2 mM L-Glutamine and Penicilin/Streptomycin 200 U/l each in the presence of iKU-1, harvested and fixed in cold 70% ethanol. Cells were recovered in PBS solution and resuspended in 200 µl of Vindel solution containing propidium iodide and RNAse A, and nuclear DNA content was measured by flow cytometry (Beckton Dickinson FACS Verse). Accumulation of cells in S-phase is apparent already after two days of the iKU-1 treatment.

Ku complex [2] = biological target: T1, Ku complex (Homo sapiens, UniProt P12956+P13010); assay: microwell protein induced fluorescent enhancement assay (mwPIFE) of Ku-DNA binding
T1 sequence (P12956 whole entry): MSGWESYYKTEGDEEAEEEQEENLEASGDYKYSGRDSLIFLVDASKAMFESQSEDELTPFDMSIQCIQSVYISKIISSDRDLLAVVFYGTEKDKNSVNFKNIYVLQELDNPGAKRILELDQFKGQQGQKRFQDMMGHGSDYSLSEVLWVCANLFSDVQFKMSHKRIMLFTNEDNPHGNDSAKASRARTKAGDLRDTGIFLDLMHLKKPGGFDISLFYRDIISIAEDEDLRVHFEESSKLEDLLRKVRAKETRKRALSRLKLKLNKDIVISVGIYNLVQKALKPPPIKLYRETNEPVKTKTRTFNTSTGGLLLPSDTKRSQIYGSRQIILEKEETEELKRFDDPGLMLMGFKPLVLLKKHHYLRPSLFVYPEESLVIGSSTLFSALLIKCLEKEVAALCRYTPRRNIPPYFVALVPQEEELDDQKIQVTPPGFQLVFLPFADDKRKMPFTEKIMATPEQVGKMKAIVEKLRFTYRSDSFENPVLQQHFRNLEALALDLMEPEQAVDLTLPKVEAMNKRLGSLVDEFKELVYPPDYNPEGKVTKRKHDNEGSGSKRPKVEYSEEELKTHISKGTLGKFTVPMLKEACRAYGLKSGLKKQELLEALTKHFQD
T1 sequence (P13010 whole entry): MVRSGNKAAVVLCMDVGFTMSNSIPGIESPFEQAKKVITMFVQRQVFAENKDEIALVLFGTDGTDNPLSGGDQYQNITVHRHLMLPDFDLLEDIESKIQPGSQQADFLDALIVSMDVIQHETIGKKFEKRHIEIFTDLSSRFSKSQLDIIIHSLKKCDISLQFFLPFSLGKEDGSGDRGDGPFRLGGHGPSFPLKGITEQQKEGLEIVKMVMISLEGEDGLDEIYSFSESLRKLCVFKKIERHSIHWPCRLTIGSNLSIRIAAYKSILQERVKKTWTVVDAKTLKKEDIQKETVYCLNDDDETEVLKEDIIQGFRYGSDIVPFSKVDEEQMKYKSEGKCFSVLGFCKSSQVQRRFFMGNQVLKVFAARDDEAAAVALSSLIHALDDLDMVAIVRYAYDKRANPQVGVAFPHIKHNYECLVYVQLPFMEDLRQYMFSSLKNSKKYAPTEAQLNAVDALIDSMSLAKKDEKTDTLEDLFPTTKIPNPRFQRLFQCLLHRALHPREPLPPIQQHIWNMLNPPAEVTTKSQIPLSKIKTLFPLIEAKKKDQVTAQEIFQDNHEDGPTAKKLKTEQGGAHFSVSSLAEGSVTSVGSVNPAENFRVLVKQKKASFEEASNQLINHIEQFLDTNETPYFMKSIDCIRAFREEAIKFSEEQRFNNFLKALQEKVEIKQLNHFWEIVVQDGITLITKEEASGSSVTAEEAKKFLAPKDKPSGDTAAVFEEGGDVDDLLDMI
Method: A rapid method for detecting protein-nucleic acid interactions by protein induced fluorescence enhancement. Sci Rep 6, 39653. mwPIFE is based on enhanced fluorescence of cyanine fluorophores attached to nucleic acid probes upon protein binding. […] The probe was immobilized in 96 well plates through biotin (Btn) attached to one end of DNA and incubated with purified Ku complex (0.5 pmol) in 50 µl of binding buffer (10 mM calcium acetate, 60 mM potassium acetate, 20 mM TRISacetate pH 7.9, 100 mg BSA/1). Ku-DNA binding was calculated from altered fluorescence measured by a fluorescence plate reader (Valuchova et al., 2016). […]

SKOV3 = assay: growth of SKOV3 cells by ATPlite; format: cell-based; details: 7 days
Method: (§1) 2,000 SKOV3 and A2780 cells were seeded in 100 µl of McCoy's 5a or RPMI 1640 media, respectively, for one day and then incubated with iKU-1 for 7 days. Number of viable cells was measured by ATPlite kit (Perkin Elmer) and normalized to the treatment with 0.5% DMSO.

U2OS = assay: combination with BIBR1532, relative growth by ATPlite; format: cell-based, human; details: 10 µM BIBR1532, 0.25 µM iKU-1 or their combination, 4 days
Ku complex [3] = biological target: T1, Ku complex; assay: electrophoretic mobility shift assay (EMSA) of Ku binding to double stranded DNA; details: 98 bp DNA probe, compared with STL127705 (Figure 1)
Text: We also compared iKU-1 (Compound 1) and the published Ku inhibitor STL127705 (Weterings, E., Gallegos, A.C., Dominick, L.N., Cooke, L.S., Bartels, T.N., Vagner, J., Matsunaga, T.O., and Mahadevan, D. (2016). A novel small molecule inhibitor of the DNA repair protein Ku70/80. DNA Repair (Amst) 43, 98-106) in their efficiency to inhibit binding of Ki to double stranded DNA by electrophoretic mobility shift assay (Figure 1). A 98 bp long oligonucleotide that can bind up to four Ku complexes was used as a probe.
DNA (0.6 nM) in 10 µl EMSA buffer (35 mM Tris-Cl pH 7.9, 150 mM KCl, 1 mM EDTA, 0.1 mM Dithiothreitol, 5% Glycerol) was mixed with 10 µl of human Ku complex (100 nM in EMSA buffer) preincubated with the inhibitors for 5 min at room temperature, and incubated for additional 10 min. DNA associated with Ku complexes was seprated by native polyacrylamide gel electrophoresis (5% polyacrylamide 29:1 [Sigma-Aldrich], 0.5 TBE) at 160 V for 4 hrs. Gels were dried in gel dryer on 3MM paper, exposed to phospho-screen (GE Healthcare) and the autoradiograms were generated by scanning with Typhoon (GE Healthcare).

HCT116 cells [4] = assay: DNA damage induction, immunodetection of γH2AX in nuclei; format: cell-based, human; details: HCT116 incubated for 1 day
Method: iKU-1 induces DNA damage in treated cells (Figure 3). HCT116 cells were incubated for 1 day in McCoy's 5a medium with 10% Fetal Bovine Serum, 2 mM L-Glutamine and Penicilin/Streptomycin 200 U/l each and supplemented with iKU-1. DNA damage induction was assessed by immunodetection of yH2AX in nuclei with specific antibody (Anti-phospho-Histone H2A.X (Ser139) Antibody, clone JBW301, Merck; dilution 1:500) and Alexa Fluor-conjugated secondary antibody (Goat anti-Mouse IgG (H+L) Highly Cross-Adsorbed Secondary Antibody, Alexa Fluor™ Plus 647, Invitrogen/Thermofisher; dilution 1:500).

HCT116 cells [5] = assay: cell proliferation, ATPlite assay; format: cell-based; details: Homo sapiens, HCT-116, 120 h, read-out: Inhibition of cell proliferation IC50
Method: HCT116, U2OS and HeLa cells were grown in McCoy's 5a medium supplemented with 10% Fetal Bovine Serum, 2 mM L-Glutamine and Penicilin/Streptomycin 200 U/l each in the presence of Compound 1-9. After growth at 37 °C, 5% CO2 for 3 days, monolayer of cells was detached using TrypLE Express (Gibco), cells were counted using 0.4% trypan blue stain and hemocytometer. […] Number of viable cells was estimated using ATPlite kit (Perkin Elmer).

A2780 = assay: growth of A2780 cells by ATPlite, alone and in combination with Bleomycin; format: cell-based, human
Method: 2,000 A2780 cells were seeded in 100 µl of RPMI 1640 medium with 300 mg/l L-Glutamine and 10% Fetal Bovine Serum for 1 day in 96well plate and treated by 0.025 µg/ml of Bleomycin, 0.5 µM of iKu-1 or their combination for 7 days. Number of viable cells was measured by ATPlite kit (Perkin Elmer) and normalized to the treatment with 0.5% DMSO.
Values in the table indicate relative growth assessed by ATPlite kit compared to the control sample treated with 0.5% DMSO after 7 days of treatment.
as §1

HCT116 = assay: combination with BIBR1532, relative growth by ATPlite; format: cell-based, human
Method: 10,000 HCT116 cells were seeded in 100 µl of McCoy's 5a medium supplemented with 10% Fetal Bovine Serum, 2 mM L-Glutamine and Penicilin/Streptomycin 200 U/l for 1 day in 96well plate and treated with 10 µM BIBR1532, 0.25 µM of iKU-1 or their combination for 4 days. Number of viable cells was measured by ATPlite kit (Perkin Elmer) and normalized to the treatment with 0.5% DMSO. The results presented in Table 2 show a synergistic effect of iKU-1 and BIBR1532 on the growth of HCT116 tumor cell line. Values in the table indicate relative growth assessed by ATPlite kit compared to the control sample treated with 0.5% DMSO after 4 days of treatment.

HeLa = assay: as above; format: cell-based, human; details: 10 µM BIBR1532, 0.25 µM iKU-1 or their combination, 4 days

## O=C(Nc1nc(-c2ccccn2)cs1)c1cncc(Br)c1 [Compound 1]
HCT116 cells [1]
  cell cycle effect: cell cycle arrest in S-phase
Ku complex [2]; mwPIFE, estimated from the 0.5 to 8 µM concentration range, read-out: Inhibition of Ku-DNA binding IC50
  IC50: 3000 nM
Ku complex [2]; read-out: % binding at 8 µM (100% = 0.5% DMSO)
  remaining activity at 8 µM: 5%
SKOV3; SKOV3, 0.5 µM
  sensitivity of cells (growth): sensitive
SKOV3; from growth curves (Figure 9)
  sensitivity of SKOV3 relative to A2780: 10 times
U2OS
  relative growth assessed by ATPlite kit compared to the control sample treated with 0.5% DMSO: 0.81
Ku complex [3]
  efficiency to inhibit binding of Ku to double stranded DNA: more potent inhibitor of Ku-DNA binding than STL127705
HCT116 cells [4]
  DNA damage induction (γH2AX signal): formation of either nuclear foci or whole nuclear staining in a subset of cells
HCT116 cells [5]
  IC50: 500 nM
A2780; A2780, 0.025 µg/ml Bleomycin with 0.5 µM iKu-1, 7 days
  interaction with Bleomycin on growth: synergism
A2780; A2780, 0.5 µM, 7 days
  growth inhibition: do not show growth inhibition
A2780; A2780, 0.025 µg/ml Bleomycin, 0.5 µM iKU-1 or their combination, 7 days
  relative growth assessed by ATPlite kit compared to the control sample treated with 0.5% DMSO: 1.11
HCT116; HCT116, 10 µM BIBR1532 with 0.25 µM iKU-1, 4 days
  interaction with BIBR1532 on growth: synergism
HCT116; HCT116, 10 µM BIBR1532, 0.25 µM iKU-1 or their combination, 4 days
  relative growth assessed by ATPlite kit compared to the control sample treated with 0.5% DMSO: 1.17
HeLa
  relative growth assessed by ATPlite kit compared to the control sample treated with 0.5% DMSO: 1.22
